T/C data for 15 compounds are collected here from PubChem BioAssay AID256 (DTP/NCI, 2004).

Structures are written as SMILES. Where “and” joins values, the source holds several entries; their conditions need not be identical. Equal entries are not always repeated. Toxic doses and inconclusive results are not listed.

In the test the test system is CD2F1 mice, L1210 leukemia ip, survival T/C. Nature of the test: NCI In Vivo Anticancer Drug Screen. Data for tumor model L1210 Leukemia (intraperitoneal) in CD2F1 (CDF1) mice. To be noted: higher = longer survival. In outline: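 Activity against a transplanted murine tumor was judged by comparing the compound group with a vehicle group. The outcome in the treated animals was divided by that in the controls.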

[1] abbreviates: endpoint: mean survival time, dose: 100.0 mg/kg/injection, schedule: Q01DX009 (ip), vehicle: saline with Tween-80.
The mark [2] stands for this setting: endpoint: mean survival time, dose: 200.0 mg/kg/injection, schedule: Q01DX009 (ip), vehicle: saline with Tween-80.
Where [3] appears, read: endpoint: mean survival time, dose: 400.0 mg/kg/injection, schedule: Q01DX009 (ip), vehicle: saline with Tween-80.
[4] abbreviates: endpoint: mean survival time, dose: 100.0 mg/kg/injection, schedule: Q04DX003 (ip), vehicle: saline with Tween-80.
The mark [5] stands for this setting: endpoint: mean survival time, dose: 50.0 mg/kg/injection, schedule: Q01DX009 (ip), vehicle: saline with Tween-80.

As to `N=c1c2ccn(C3OC(CO)C(O)C3O)c2ncn1N` (stereo not given), the T/C was 115 % of control (endpoint: mean survival time, dose: 12.5 mg/kg/injection, schedule: Q01DX005 (ip), vehicle: water); 110 % of control (endpoint: mean survival time, dose: 25.0 mg/kg/injection, schedule: Q01DX005 (ip), vehicle: water); 115 % of control and 116 % of control (endpoint: mean survival time, dose: 50.0 mg/kg/injection, schedule: Q01DX005 (ip), vehicle: water); 94 % of control (endpoint: mean survival time, dose: 100.0 mg/kg/injection, schedule: Q01DX005 (ip), vehicle: water).
For the compound `CC(=O)Nc1ccc(F)cc1`, the T/C was 105 % of control (endpoint: mean survival time, dose: 100.0 mg/kg/injection, schedule: Q04DX003 (ip), vehicle: saline); 100 % of control (endpoint: mean survival time, dose: 200.0 mg/kg/injection, schedule: Q04DX003 (ip), vehicle: saline); 95 % of control (endpoint: mean survival time, dose: 400.0 mg/kg/injection, schedule: Q04DX003 (ip), vehicle: saline).
With `COS(=O)(=O)C=C(c1ccccc1)c1ccccc1`, the T/C is, setting by setting: (endpoint: mean survival time, dose: 75.0 mg/kg/injection, schedule: Q01DX009 (ip), vehicle: saline) 103 % of control; (endpoint: mean survival time, dose: 75.0 mg/kg/injection, schedule: Q04DX003 (ip), vehicle: saline) 91 % of control; (endpoint: mean survival time, dose: 150.0 mg/kg/injection, schedule: Q01DX009 (ip), vehicle: saline) 100 % of control; (endpoint: mean survival time, dose: 150.0 mg/kg/injection, schedule: Q04DX003 (ip), vehicle: saline) 94 % of control; (endpoint: mean survival time, dose: 300.0 mg/kg/injection, schedule: Q01DX009 (ip), vehicle: saline) 100 % of control; (endpoint: mean survival time, dose: 300.0 mg/kg/injection, schedule: Q04DX003 (ip), vehicle: saline) 91 % of control.
As to `CNCCOC(=O)/C=C/c1ccccc1`, the T/C runs as follows: (endpoint: mean survival time, dose: 100.0 mg/kg/injection, schedule: Q01DX009 (ip), vehicle: saline) 98 % of control; (endpoint: mean survival time, dose: 200.0 mg/kg/injection, schedule: Q01DX009 (ip), vehicle: saline) 95 % of control; (endpoint: mean survival time, dose: 400.0 mg/kg/injection, schedule: Q01DX009 (ip), vehicle: saline) 95 % of control.
In the case of `C[C@]12CC[C@H]3[C@@H](CCC4=C[C@@H](OC5OCC(OC6OC(CO)C(O)C(O)C6O)C(O)C5O)CC[C@@]43C=O)[C@@]1(O)CCC2C1=CC(=O)OC1` (stereo not given in full), the T/C reads like this: (endpoint: mean survival time, dose: 0.16 mg/kg/injection, schedule: Q01DX009 (ip), vehicle: Klucel (hydroxypropylcellulose) (HPC)) 101 % of control; (endpoint: mean survival time, dose: 0.31 mg/kg/injection, schedule: Q01DX009 (ip), vehicle: Klucel (hydroxypropylcellulose) (HPC)) 101 % of control; (endpoint: mean survival time, dose: 0.62 mg/kg/injection, schedule: Q01DX009 (ip), vehicle: Klucel (hydroxypropylcellulose) (HPC)) 98 % of control; (endpoint: mean survival time, dose: 0.63 mg/kg/injection, schedule: Q01DX009 (ip), vehicle: Klucel (hydroxypropylcellulose) (HPC)) 102 % of control; (endpoint: mean survival time, dose: 1.25 mg/kg/injection, schedule: Q01DX009 (ip), vehicle: Klucel (hydroxypropylcellulose) (HPC)) 98 % of control and 107 % of control; (endpoint: mean survival time, dose: 2.5 mg/kg/injection, schedule: Q01DX009 (ip), vehicle: Klucel (hydroxypropylcellulose) (HPC)) 93 % of control and 95 % of control. The T/C by setting is: (endpoint: mean survival time, dose: 5.0 mg/kg/injection, schedule: Q01DX009 (ip), vehicle: Klucel (hydroxypropylcellulose) (HPC)) 102 % of control; (endpoint: mean survival time, dose: 10.0 mg/kg/injection, schedule: Q01DX009 (ip), vehicle: Klucel (hydroxypropylcellulose) (HPC)) 108 % of control; (endpoint: mean survival time, dose: 20.0 mg/kg/injection, schedule: Q01DX009 (ip), vehicle: Klucel (hydroxypropylcellulose) (HPC)) 113 % of control; (endpoint: mean survival time, dose: 156.0 micrograms/kg/injection, schedule: Q01DX009 (ip), vehicle: Klucel (hydroxypropylcellulose) (HPC)) 104 % of control; (endpoint: mean survival time, dose: 312.0 micrograms/kg/injection, schedule: Q01DX009 (ip), vehicle: Klucel (hydroxypropylcellulose) (HPC)) 110 % of control; (endpoint: mean survival time, dose: 625.0 micrograms/kg/injection, schedule: Q01DX009 (ip), vehicle: Klucel (hydroxypropylcellulose) (HPC)) 100 % of control. Besides, the T/C runs as follows: (endpoint: mean survival time, dose: 1250.0 micrograms/kg/injection, schedule: Q01DX009 (ip), vehicle: Klucel (hydroxypropylcellulose) (HPC)) 92 % of control; (endpoint: mean survival time, dose: 2500.0 micrograms/kg/injection, schedule: Q01DX009 (ip), vehicle: Klucel (hydroxypropylcellulose) (HPC)) 101 % of control; (endpoint: mean survival time, dose: 5000.0 micrograms/kg/injection, schedule: Q01DX009 (ip), vehicle: Klucel (hydroxypropylcellulose) (HPC)) 101 % of control.
For the compound `Cc1ccc(N=C(N)NC#N)cc1`, the T/C runs as follows: under setting [1], 91 % of control; under setting [2], 93 % of control; under setting [3], 91 % of control.
For the compound `O=C1/C(=C/c2ccc([N+](=O)[O-])cc2)CCc2ccccc21`, the T/C was 97 % of control (endpoint: mean survival time, dose: 12.5 mg/kg/injection, schedule: Q01DX009 (ip), vehicle: Klucel (hydroxypropylcellulose) (HPC)); 96 % of control (endpoint: mean survival time, dose: 25.0 mg/kg/injection, schedule: Q01DX009 (ip), vehicle: Klucel (hydroxypropylcellulose) (HPC)); 94 % of control (endpoint: mean survival time, dose: 50.0 mg/kg/injection, schedule: Q01DX009 (ip), vehicle: Klucel (hydroxypropylcellulose) (HPC)); 92 % of control (endpoint: mean survival time, dose: 100.0 mg/kg/injection, schedule: Q01DX009 (ip), vehicle: Klucel (hydroxypropylcellulose) (HPC)); 91 % of control (endpoint: mean survival time, dose: 200.0 mg/kg/injection, schedule: Q01DX009 (ip), vehicle: Klucel (hydroxypropylcellulose) (HPC)).
Consider `COC1CCC2=C(C1)C(=O)CC1c3ccccc3CN21` (stereo not given), for which, under setting [4], the T/C is 97 % of control.
For `C/C=C/CC1CCCCC1`, the T/C under setting [5] was 100 % of control, the T/C under setting [1] is 100 % of control and the T/C under setting [2] is 100 % of control.
Regarding `Cc1nc(/N=C(\N)Nc2ccc(Cl)c(Cl)c2)[nH]c(=O)c1Cc1ccccc1`, the T/C reads like this: under setting [4], 95 % of control; (endpoint: mean survival time, dose: 200.0 mg/kg/injection, schedule: Q04DX003 (ip), vehicle: saline with Tween-80) 88 % of control; (endpoint: mean survival time, dose: 400.0 mg/kg/injection, schedule: Q04DX003 (ip), vehicle: saline with Tween-80) 102 % of control.
As for `CCCCCCCCN(C)Cc1cc(C(C)(C)C)cc(-c2ccccc2)c1O`, the T/C is 96 % of control under setting [1], 96 % of control under setting [2] and 96 % of control under setting [3].
Take `CCOC(=O)C(OCC)C1=Cc2ccccc2CC1` (stereo not given): the T/C was 97 % of control (endpoint: mean survival time, dose: 12.5 mg/kg/injection, schedule: Q01DX005 (ip), vehicle: Klucel (hydroxypropylcellulose) (HPC)); 97 % of control (endpoint: mean survival time, dose: 25.0 mg/kg/injection, schedule: Q01DX005 (ip), vehicle: Klucel (hydroxypropylcellulose) (HPC)); 98 % of control (endpoint: mean survival time, dose: 50.0 mg/kg/injection, schedule: Q01DX005 (ip), vehicle: Klucel (hydroxypropylcellulose) (HPC)); 93 % of control (endpoint: mean survival time, dose: 100.0 mg/kg/injection, schedule: Q01DX005 (ip), vehicle: Klucel (hydroxypropylcellulose) (HPC)); 89 % of control (endpoint: mean survival time, dose: 200.0 mg/kg/injection, schedule: Q01DX005 (ip), vehicle: Klucel (hydroxypropylcellulose) (HPC)); 98 % of control (endpoint: mean survival time, dose: 400.0 mg/kg/injection, schedule: Q01DX005 (ip), vehicle: Klucel (hydroxypropylcellulose) (HPC)).
As to `CCOc1ccc(C(C)c2cc3c(cc2OC)OCO3)cc1` (stereo not given), the T/C is, setting by setting: (endpoint: median survival time, dose: 25.0 mg/kg/injection, schedule: Q01DX009 (ip), vehicle: distilled water + Tween-80) 104 % of control; (endpoint: median survival time, dose: 25.0 mg/kg/injection, schedule: Q01DX009 (ip), vehicle: saline with Tween-80) 117 % of control; (endpoint: median survival time, dose: 50.0 mg/kg/injection, schedule: Q01DX009 (ip), vehicle: distilled water + Tween-80) 104 % of control; (endpoint: median survival time, dose: 50.0 mg/kg/injection, schedule: Q01DX009 (ip), vehicle: saline with Tween-80) 109 % of control; (endpoint: median survival time, dose: 100.0 mg/kg/injection, schedule: Q01DX009 (ip), vehicle: distilled water + Tween-80) 109 % of control; (endpoint: median survival time, dose: 100.0 mg/kg/injection, schedule: Q01DX009 (ip), vehicle: saline with Tween-80) 110 % of control. Also, the T/C is 124 % of control (endpoint: median survival time, dose: 200.0 mg/kg/injection, schedule: Q01DX009 (ip), vehicle: distilled water + Tween-80) and 150 % of control (endpoint: median survival time, dose: 200.0 mg/kg/injection, schedule: Q01DX009 (ip), vehicle: saline with Tween-80).
Turning to `CCN(CC)CC(C)(C)C(=O)/C=C/c1ccc(/C=C/C(=O)C(C)(C)CN(CC)CC)cc1`, the T/C is 98 % of control (endpoint: median survival time, dose: 3.75 mg/kg/injection, schedule: Q01DX005 (ip), vehicle: saline); 107 % of control (endpoint: median survival time, dose: 7.5 mg/kg/injection, schedule: Q01DX005 (ip), vehicle: saline); 107 % of control (endpoint: median survival time, dose: 15.0 mg/kg/injection, schedule: Q01DX005 (ip), vehicle: saline); 116 % of control (endpoint: median survival time, dose: 30.0 mg/kg/injection, schedule: Q01DX005 (ip), vehicle: saline).
Take `COc1cc(OC)c(NC(=O)Nc2ccc(C)c([N+](=O)[O-])c2)cc1Cl`: the T/C is 98 % of control under setting [5], 90 % of control under setting [1] and 94 % of control under setting [2].
